According to patent publication US5212185A, “Piperidinyl-terminated alkylamino ethynyl alanine amino diol compounds for treatment of hypertension” (G. D. Searle & Co., priority 1992, dated 1993):
Blank lines part the entries; values can stand above or below the molecule they belong to. Square brackets hold non-standard residues; d marks the D form. Peptide text beside a SMILES is read from it. * marks the point of attachment. Sta = CC(C)C[C@H](N)[C@@H](O)CC(=O)O; Isovaleryl = CC(C)CC(=O)*

Key:
human renin = target: T1, human renin (Homo sapiens, UniProt P00797); experiment: Human Renin Inhibition in vitro (angiotensin I generation by radioimmunoassay); assay type: biochemical; conditions: pH 7.4, 37° C., two hours, human plasma
T1 construct: purchased National Institute for Biological Standards, London
T1 sequence (P00797 67-406): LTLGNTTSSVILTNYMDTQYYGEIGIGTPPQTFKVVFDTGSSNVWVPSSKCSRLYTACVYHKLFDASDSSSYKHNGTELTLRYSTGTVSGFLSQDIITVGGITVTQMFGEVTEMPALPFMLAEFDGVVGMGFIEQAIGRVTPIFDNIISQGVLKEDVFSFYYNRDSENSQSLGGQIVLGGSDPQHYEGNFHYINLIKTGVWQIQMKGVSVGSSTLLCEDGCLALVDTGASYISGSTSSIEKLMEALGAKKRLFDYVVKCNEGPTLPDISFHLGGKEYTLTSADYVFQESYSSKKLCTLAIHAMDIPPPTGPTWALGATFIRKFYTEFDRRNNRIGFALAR
Experimental: Compounds of Formula I were evaluated as inhibitors of human renin in an in vitro assay, as follows: This human renin inhibition test has been previously described in detail [Papaioannou et al., Clinical and Experimental Hypertension, A7(9), 1243-1257 (1985)]. Human renin was obtained from the National Institute for Biological Standards, London. An incubation mixture was prepared containing the following components: in a total volume of 0.25 mL: 100 mM Tris-acetate buffer at pH 7.4, 25×10^-6 Goldblatt units of renin, 0.05 mL of plasma from human volunteers taking oral contraceptives, 6.0 mM Na-EDTA, 2.4 mM phenylmethyl sulfonyl fluoride, 1.5 mM 8-hydroxyquinoline, 0.4 mg/mL bovine serum albumin (BSA), and 0.024 mg/mL neomycin sulfate. This mixture was incubated for two hours at 37° C. in the presence or absence of renin inhibitors. The produced angiotensin I was determined by radioimmunoassay (New England Nuclear kit). Test compounds to be assayed were dissolved in DMSO and diluted with 100mM Tris-acetate buffer at pH 7.4 containing 0.5% BSA to the appropriate concentration. The final concentration of organic solvent in the reaction mixture was less than 1%. Control incubations at 37° C. were used to correct for effects of organic solvent on renin activity.

acid proteases = conditions: cited from earlier work
renin = conditions: cited from earlier work
hog renin = conditions: after the injection of hog renin into nephrectomized rats; cited from earlier work
cathepsin D = conditions: cited from earlier work
pepsin = conditions: cited from earlier work

- IC50 (human renin): 0.83 nM
Compound: C#CC[C@H](NC(=O)[C@@H](CC(=O)N(C)CCN1CCCCC1)Cc1ccccc1)C(=O)N[C@@H](CC1CCCCC1)[C@@H](O)[C@@H](O)CC(C)C [Example 1]

- IC50 (human renin): 0.56 nM
Compound: C#CC[C@H](NC(=O)[C@@H](CC(=O)N(C)CCN1Cc2ccccc2C1)Cc1ccccc1)C(=O)N[C@@H](CC1CCCCC1)[C@@H](O)[C@@H](O)CC(C)C [Example 2]

Compound: C#CC[C@H](NC(=O)[C@@H](CC(=O)N(C)CCN1CC2CCC(CC2)C1)Cc1ccccc1)C(=O)N[C@@H](CC1CCCCC1)[C@@H](O)[C@@H](O)CC(C)C [Example 3]
- IC50 (human renin): 1.2 nM

Compound: CC(C)CC(=O)N[C@H](C(=O)N[C@H](C(=O)N[C@@H](CC(C)C)[C@@H](O)CC(=O)N[C@@H](C)C(=O)N[C@@H](CC(C)C)[C@@H](O)CC(=O)O)C(C)C)C(C)C [pepstatin] (Isovaleryl-VV[Sta]A[Sta]-OH)
- inhibiting acid proteases in addition to renin (acid proteases): inhibiting acid proteases in addition to renin
- inhibition of renin (renin): inhibitor of aspartyl proteases such as pepsin, cathepsin D and renin
- reduce blood pressure in vivo (hog renin): found to reduce blood pressure in vivo
- inhibition of cathepsin D (cathepsin D): inhibitor of aspartyl proteases such as pepsin, cathepsin D
- inhibition of pepsin (pepsin): inhibitor of aspartyl proteases such as pepsin
